Read-outs that look alike come from different tables or passages of the source.
Target: T1, human PDE2A1 (Homo sapiens, UniProt O00408)
T1 construct: GST; purchased BPS Bioscience (San Diego, Calif.) 60020; host or cells: insect cells
Experiment: IMAP FP PDE assay, human PDE2A1
Assay type: biochemical
Procedure, shortened: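 FP (IMAP) read after 60 min room-temperature reaction of insect-cell GST-human PDE2A1 with 50 nM FAM-cAMP plus 1000 nM cGMP (pH 7.2 Tris, Mg2+, DTT). Compounds titrated 3-fold over ten points. Apparent Ki derived assuming KM of 10,000 nM; enzyme at 20% substrate turnover.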

[1] = Lab B, read-out: Human PDE2 Ki (nM) Lab B
[2] = Lab A, read-out: Human PDE2 Ki (nM) Lab A

T1 sequence (O00408 1-920 isoform O00408-2): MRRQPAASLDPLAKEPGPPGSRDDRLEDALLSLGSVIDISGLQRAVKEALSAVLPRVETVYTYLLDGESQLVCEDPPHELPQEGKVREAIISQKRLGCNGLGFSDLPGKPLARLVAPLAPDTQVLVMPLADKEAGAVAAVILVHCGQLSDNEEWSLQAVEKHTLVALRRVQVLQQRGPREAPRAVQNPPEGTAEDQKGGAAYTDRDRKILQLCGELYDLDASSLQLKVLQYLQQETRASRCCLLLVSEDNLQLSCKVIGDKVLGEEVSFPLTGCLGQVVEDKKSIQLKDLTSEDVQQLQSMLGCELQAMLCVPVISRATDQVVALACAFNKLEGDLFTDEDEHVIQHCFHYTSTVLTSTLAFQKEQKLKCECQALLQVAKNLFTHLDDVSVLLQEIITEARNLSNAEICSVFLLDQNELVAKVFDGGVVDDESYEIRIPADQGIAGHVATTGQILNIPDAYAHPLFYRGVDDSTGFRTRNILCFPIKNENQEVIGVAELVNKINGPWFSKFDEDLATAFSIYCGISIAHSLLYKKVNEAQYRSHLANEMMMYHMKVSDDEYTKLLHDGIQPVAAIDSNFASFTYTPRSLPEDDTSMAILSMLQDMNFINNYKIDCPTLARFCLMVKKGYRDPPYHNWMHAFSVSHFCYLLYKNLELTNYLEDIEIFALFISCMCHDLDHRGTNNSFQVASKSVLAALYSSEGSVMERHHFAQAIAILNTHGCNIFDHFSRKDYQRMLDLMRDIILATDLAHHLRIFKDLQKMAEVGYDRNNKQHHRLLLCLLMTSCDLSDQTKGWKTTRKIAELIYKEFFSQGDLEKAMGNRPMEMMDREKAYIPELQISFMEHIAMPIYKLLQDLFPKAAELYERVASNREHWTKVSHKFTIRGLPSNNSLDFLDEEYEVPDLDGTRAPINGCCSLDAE

Ki [1]	Ki [2]	Structure (SMILES)
0.65 nM		Cc1nc2c(c(CF)nn2C(C)c2ccc(CC(F)(F)F)cc2)c(=O)[nH]1 (single isomer, unassigned) [Example 211, (S)- or (R)-3-(Fluoromethyl)-6-methyl-1-(1-(4-(2,2,2-trifluoroethyl)phenyl)ethyl)-1H-pyrazolo[3,4-d]pyrimidin-4(5H)-one]
2.9 nM		Cc1nc2c(c(CF)nn2C2(c3ccc(C(F)(F)F)cc3)CCC2)c(=O)[nH]1 [Example 202, 3-(Fluoromethyl)-6-methyl-1-(1-(4-(trifluoromethyl)phenyl)cyclobutyl)-1H-pyrazolo[3,4-d]pyrimidin-4(5H)-one]
	70 nM	Cc1nc2c(c(C(C)(C)O)nn2C(C)c2ccc(C(F)(F)F)cc2)c(=O)[nH]1 (centres unmarked) [Example 326, 3-(1-Hydroxy-1-methylethyl)-6-methyl-1-{1-[4-(trifluoromethyl)phenyl]ethyl}-1,5-dihydro-4H-pyrazolo[3,4-d]pyrimidin-4-one]
	8.6 nM	COc1ccc(Cc2nc3c(c(C)nn3C(C)c3ccc(C(F)(F)F)cc3)c(=O)[nH]2)cc1 (centres unmarked) [Example 46, 6-(4-Methoxybenzyl)-3-methyl-1-{1-[4-(trifluoromethyl)phenyl]ethyl}-1,5-dihydro-4H-pyrazolo[3,4-d]pyrimidin-4-one]
1.7 nM		Cc1nc2c(c(CO)nn2C(C)c2ccc(C(F)(F)F)c(F)c2)c(=O)[nH]1 (single isomer, unassigned) [Example 13, (S)- or (R)-1-(1-(3-Fluoro-4-(trifluoromethyl)phenyl)ethyl)-3-(hydroxymethyl)-6-methyl-1H-pyrazolo[3,4-d]pyrimidin-4(5H)-one]
2 nM		Cc1nc2c(c(CF)nn2C(C)c2ccc(S(F)(F)(F)(F)F)cc2)c(=O)[nH]1 (single isomer, unassigned) [Example 200]
	18 nM	Cc1nn(C(C)c2ccc(C(F)(F)F)cc2)c2nc(-c3ccccn3)[nH]c(=O)c12 (centres unmarked) [Example 52, 3-Methyl-6-pyridin-2-yl-1-{1-[4-(trifluoromethyl)phenyl]ethyl}-1,5-dihydro-4H-pyrazolo[3,4-d]pyrimidin-4-one]
1.3 nM		Cc1nc2c(c(C(F)F)nn2C(C)c2ccc(C(F)(F)F)cc2)c(=O)[nH]1 (single isomer, unassigned) [Example 176]
0.23 nM		COc1ccc(Cc2nc3c(c(C(F)F)nn3C(C)c3ccc(C(F)(F)F)cc3)c(=O)[nH]2)cc1OC (single isomer, unassigned) [Example 197]
0.7 nM		Cc1nc2c(c(CF)nn2C(C)c2ccc(OC(F)(F)F)c(F)c2)c(=O)[nH]1 (single isomer, unassigned) [Example 217, (S)- or (R)-1-(1-(3-Fluoro-4-(trifluoromethoxy)phenyl)ethyl)-3-(fluoromethyl)-6-methyl-1H-pyrazolo[3,4-d]pyrimidin-4(5H)-one]
0.48 nM		Cc1nc2c(c(CF)nn2C(C)c2ccc(C(C)(C)C)cc2)c(=O)[nH]1 (single isomer, unassigned) [Example 215, (S)- or (R)-1-(1-(4-tert-Butylphenyl)ethyl)-3-(fluoromethyl)-6-methyl-1H-pyrazolo[3,4-d]pyrimidin-4(5H)-one]
3.1 nM		Cc1nc2c(c(CO)nn2[C@@H](C)c2ccc(OC(F)(F)F)cc2)c(=O)[nH]1 [Example 158, (S)-3-(Hydroxymethyl)-6-methyl-1-(1-(4-(trifluoromethoxy)phenyl)ethyl)-1H-pyrazolo[3,4-d]pyrimidin-4(5H)-one]
3.6 nM	1.5 nM	Cc1nc2c(c(CF)nn2C(C)c2ccc(C(F)(F)F)c(F)c2)c(=O)[nH]1 (centres unmarked) [Example 230, 1-(1-(3-Fluoro-4-(trifluoromethyl)phenyl)ethyl)-3-(fluoromethyl)-6-methyl-1H-pyrazolo[3,4-d]pyrimidin-4(5H)-one]
5.7 nM		Cc1nc2c(c(CO)nn2C(c2ccc(OC(F)(F)F)c(F)c2)C(C)C)c(=O)[nH]1 (single isomer, unassigned) [Example 126, (R)- or (S)-1-(1-(3-Fluoro-4-(trifluoromethoxy)phenyl)-2-methylpropyl)-3-(hydroxyl-methyl)-6-methyl-1H-pyrazolo-[3,4-d]pyrimidin-4(5H)-one]
	21 nM	COCc1nc2c(c(C)nn2C(C)c2ccc(C(F)(F)F)cc2)c(=O)[nH]1 (centres unmarked) [Example 48, 6-(Methoxymethyl)-3-methyl-1-{1-[4-(trifluoromethyl)phenyl]ethyl}-1,5-dihydro-4H-pyrazolo[3,4-d]pyrimidin-4-one]
	22 nM	COc1cccc(Cc2nc3c(c(C)nn3C(C)c3ccc(C(F)(F)F)cc3)c(=O)[nH]2)c1 (centres unmarked) [Example 45, 6-(3-Methoxybenzyl)-3-methyl-1-{1-[4-(trifluoromethyl)phenyl]ethyl}-1,5-dihydro-4H-pyrazolo[3,4-d]pyrimidin-4-one]
18 nM		Cc1nc2c(c(CO)nn2C(c2ccc(OC(F)(F)F)cc2)C2CC2)c(=O)[nH]1 (single isomer, unassigned) [Example 94, (R)- or (S)-1-(Cyclopropyl(4-(trifluoromethoxy)phenyl)methyl)-3-(hydroxymethyl)-6-methyl-1H-pyrazolo[3,4-d]pyrimidin-4(5H)-one]
	47 nM	Cc1nn(C(C)c2ccc(C(F)(F)F)cc2)c2nc(-c3cnc4ccccc4n3)[nH]c(=O)c12 (centres unmarked) [Example 50, 3-Methyl-6-quinoxalin-2-yl-1-{1-[4-(trifluoromethyl)phenyl]ethyl}-1,5-dihydro-4H-pyrazolo[3,4-d]pyrimidin-4-one]
3.4 nM		COCc1nc2c(c(CF)nn2C(C)c2ccc(C(F)(F)F)cc2)c(=O)[nH]1 (centres unmarked) [Example 205, 3-(Fluoromethyl)-6-(methoxymethyl)-1-{1-[4-(trifluoromethyl)phenyl]ethyl}-1,5-dihydro-4H-pyrazolo[3,4-d]pyrimidin-4-one]
1.9 nM		Cc1nc2c(c(CO)nn2C(C)c2ccc(OC(F)(F)F)c(F)c2)c(=O)[nH]1 (single isomer, unassigned) [Example 11, (S)- or (R)-1-(1-(3-Fluoro-4-(trifluoromethoxy)phenyl)ethyl)-3-(hydroxymethyl)-6-methyl-1H-pyrazolo[3,4-d]pyrimidin-4(5H)-one]
	28 nM	CCc1nc2c(c(C)nn2C(C)c2ccc(C(F)(F)F)cc2)c(=O)[nH]1 (centres unmarked) [Example 38, 6-Ethyl-3-methyl-1-{1-[4-(trifluoromethyl)phenyl]ethyl}-1,5-dihydro-4H-pyrazolo[3,4-d]pyrimidin-4-one]
2.6 nM		Cc1nc2c(c(CF)nn2C(c2ccc(C(F)(F)F)cc2)C(F)(F)F)c(=O)[nH]1 (centres unmarked) [Example 201, 3-(Fluoromethyl)-6-methyl-1-(2,2,2-trifluoro-1-(4-(trifluoromethyl)phenyl)-ethyl)-1H-pyrazolo[3,4-d]pyrimidin-4(5H)-one]
3.1 nM		Cc1nc2c(c(CO)nn2C(c2ccc(C(F)(F)F)cc2)C(F)(F)F)c(=O)[nH]1 (centres unmarked) [Example 6, 3-(Hydroxymethyl)-6-methyl-1-(2,2,2-trifluoro-1-(4-(trifluoromethyl)phenyl)ethyl)-1H-pyrazolo[3,4-d]pyrimidin-4(5H)-one]
0.7 nM	0.27 nM	Cc1nc2c(c(CCl)nn2C(c2ccc(C(F)(F)F)cc2)C2CC2)c(=O)[nH]1 (centres unmarked) [Example 232, 3-(chloromethyl)-1-(cyclopropyl(4-(trifluoromethyl)phenyl)methyl)-6-methyl-1H-pyrazolo[3,4-d]pyrimidin-4(5H)-one]

Reference: patent US10160762B2, “6-alkyl dihydropyrazolopyrimidinone compounds as PDE2 inhibitors” (Merck Sharp & Dohme Corp., priority 2015, dated 2018)
